Results: US20090202508A1, “NEGATIVE REGULATION OF HYPOXIA INDUCIBLE FACTOR 1 BY OS-9” (THE JOHNS HOPKINS UNIVERSITY, priority 2004, published 2009)
Peptide text beside a SMILES is read from it. * marks the point of attachment. Cbz = O=C(OCc1ccccc1)*

T1: HA-OS-9 (hemagglutinin epitope-tagged human OS-9) (human, UniProt Q13438 1-667, 35S-methionine labelled when in vitro-translated)
T1 construct: In vitro-translated in reticulocyte lysate (pull-downs) or expressed in transfected 293 cells (co-IP, lysates); also called HA-tagged OS-9; in vitro-translated OS-9
T1 sequence (looked up): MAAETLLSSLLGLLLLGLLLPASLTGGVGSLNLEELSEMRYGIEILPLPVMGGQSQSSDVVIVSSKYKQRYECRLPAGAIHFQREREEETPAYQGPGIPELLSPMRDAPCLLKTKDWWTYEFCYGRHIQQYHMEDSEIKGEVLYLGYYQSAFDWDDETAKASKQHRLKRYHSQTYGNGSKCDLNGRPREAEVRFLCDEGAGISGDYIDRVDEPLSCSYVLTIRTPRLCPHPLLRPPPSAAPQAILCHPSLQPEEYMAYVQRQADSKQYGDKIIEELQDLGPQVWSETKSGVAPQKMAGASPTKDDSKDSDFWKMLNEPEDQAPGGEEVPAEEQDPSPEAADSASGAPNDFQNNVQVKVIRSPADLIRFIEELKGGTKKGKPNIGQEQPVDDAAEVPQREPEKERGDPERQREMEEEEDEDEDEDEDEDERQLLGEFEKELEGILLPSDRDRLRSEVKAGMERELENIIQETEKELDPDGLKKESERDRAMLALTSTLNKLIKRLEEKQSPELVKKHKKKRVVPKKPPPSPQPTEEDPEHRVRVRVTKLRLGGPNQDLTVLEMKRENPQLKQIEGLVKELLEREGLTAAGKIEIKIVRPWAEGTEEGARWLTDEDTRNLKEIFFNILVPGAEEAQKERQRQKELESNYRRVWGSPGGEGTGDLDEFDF


Columns and labels:
PHD2 [1] = target: T2, PHD2 (Homo sapiens, UniProt Q9GZT9); assay: Prolyl hydroxylation assay / in vitro VHL binding assay with GST-HIF-1α (531-826); assay type: biochemical; conditions: lysates of PHD2/OS-9 transfected 293 cells; 1 mM DMOG; FIG. 7A
T2 construct: expressed in transfected cells; host or cells: 293 cells (whole cell lysate used as the enzyme source)
T2 sequence (Q9GZT9 whole entry): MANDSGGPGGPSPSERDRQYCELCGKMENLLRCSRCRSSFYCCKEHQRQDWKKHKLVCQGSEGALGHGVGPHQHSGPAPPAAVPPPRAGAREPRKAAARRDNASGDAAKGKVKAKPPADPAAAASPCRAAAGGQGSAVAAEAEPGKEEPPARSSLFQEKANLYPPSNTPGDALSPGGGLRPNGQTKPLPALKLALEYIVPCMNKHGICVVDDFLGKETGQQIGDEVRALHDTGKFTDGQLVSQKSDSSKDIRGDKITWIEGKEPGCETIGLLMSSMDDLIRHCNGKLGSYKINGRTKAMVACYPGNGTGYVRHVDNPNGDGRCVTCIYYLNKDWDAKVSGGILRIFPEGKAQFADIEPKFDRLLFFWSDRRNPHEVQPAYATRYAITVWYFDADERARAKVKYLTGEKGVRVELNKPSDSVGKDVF
Description: [^35S]methionine-labeled VHL protein was synthesized in vitro and GST-HIF-1α (531-826) fusion protein (GstA) was expressed in E. coli. 293 cells were transfected with empty, PHD2, or OS-9 expression vector. After 24 h, cells were washed twice with cold hypotonic extraction buffer containing 20 mM Tris (pH 7.5), 5 mM KCl, 1.5 mM MgCl2, 1 mM dithiothreitol and lysed with hypotonic extraction buffer in a Dounce homogenizer. The cell extract was centrifuged at 10,000×g for 10 min at 4° C., and the supernatant was stored in aliquots at −70° C. GstA (4 μg) was preincubated with whole cell lysate (50 μg) in a total volume of 50 μl with PBS-T at 30° C. for 10 min with or without 1 mM dimethyloxalyl glycine (DMOG). The reaction was terminated by addition of desferrioxamine to 1 mM. One aliquot (0.5 μg of GstA) was used for immunoblot assay using anti-hydroxyproline-564 HIF-1α antibody (Chan et al., 2002). The remainder ([…] of GstA) was used for in vitro VHL binding assay.
(§1) For in vitro VHL binding assay, preincubated GstA and 5 μl of [^35S]methionine-labeled VHL protein were mixed in a total volume of 300 μl of PBS-T with 1 mM desferrioxamine and incubated at 4° C. for 90 min. 20 ul of glutathione-Sepharose-4B beads (Amersham Biosciences) was added and incubated for 30 min with rotation. Beads were washed three times with PBS-T. Proteins were eluted in Laemmli sample buffer, fractionated by SDS-PAGE, and detected by autoradiography. For PHD binding assay, […] of GST-HIF-1α was preincubated with 50 μg of -whole cell lysate in a total volume of 50 μl with PBS-T at 30° C. for 10 min with or without 1 mM DMOG. The reaction was terminated by addition of desferrioxamine to 1 mM, 20 μl of glutathione-Sepharose-4B beads were added and incubated for 30 min. The beads were washed three times with PBS-T. Bound protein was eluted in Laemmli sample buffer, fractionated by SDS-PAGE, and subjected to immunoblot assay using antibodies against PHD2 (Novus Biologicals Inc.) or GST (Amersham).

PHD2 [2] = target: T2, PHD2; assay: PHD binding assay (pull down of PHD2 with GST-HIF-1α (531-826)); conditions: lysates of transfected 293 cells; 1 mM DMOG; FIG. 7B
Description: as §1

HIF-1α = HIF-1α protein levels by immunoblot in transfected 293 cells; assay type: cell-based, human; conditions: 293 cells co-transfected with HA-OS-9 and HIF-1α; MG132 10 μM; FIG. 4A
Description: 293 or Hep3B cells were seeded onto 24-well plates at 8×10^4 cells per well of a 24-well plate. The following day, the cells were transfected with plasmid DNAs using Fugene-6 (Roche) for 293 and Lipofectamine Plus (Invitrogen) for Hep3B cells. After 24 h, the cells were exposed to 20% or 1% O2 for 24 h. Cells were lysed, and the luciferase activities were determined by multi-well luminescence reader (PerkinElmer), using the Dual-Luciferase Reporter Assay System (Promega). For p2.1 reporter assay, cells were co-transfected with 15 ng of control reporter pSV-Renilla, 135 ng of HIF-1 reporter p2.1, and expression vector encoding HA-OS-9, HIF-1α, or empty vector. Unless indicated otherwise, 200 ng of HIF-1α, 400 ng of HA-OS-9, 1 ng of PHD2, or 1 ng of HIF-1α triple mutant P402A/P564A/N803A (HIF-1α TM) expression vector was used for co-transfection. For pGalA reporter assays, Hep3B cells were co-transfected with 12.5 ng of pSV-Renilla, reporter 200 ng of pG5ElbLuc, 100 ng of expression vector encoding the GAL4 DNA-binding domain alone or fused to HIF-1α residues 531-826 (Jiang et al. 1997) and empty vector or vector encoding HA-OS-9. For immunoblot assays, 293 cells were seeded at 3×10^6 cells per 10-cm plate. The following day, the cells were co-transfected with expression vectors using Fugene-6. After 24 h, the cells were exposed to 20% or 1% O2 with or without MG132 (10 μM) for 8 h and lysed in 200 μl of lysis buffer containing 50 mM Tris-Cl (pH 8.0), 150 mM NaCl, 5 mM EDTA, 0.1% SDS, 1% NP-40, 0.5% sodium deoxycholate, Complete protease inhibitor cocktail (Roche), sodium orthovanadate, and sodium vanadate (Sigma).

[3] = target: T1, HA-OS-9 (hemagglutinin epitope-tagged …); assay: GST pull-down of 35S-labelled in vitro-translated HA-OS-9, SDS-PAGE and autoradiography

| Molecule | binding result [3] | further results |
| --- | --- | --- |
| COC(=O)CNC(=O)C(=O)OC [DMOG, dimethyloxalylglycine, reference compound] |  | binding of VHL to GST-HIF-1α (531-826) (PHD2 [1]): completely blocked; binding of PHD2 to GST-HIF-1α (531-826) (PHD2 [2]): further increased |
| CC(C)C[C@@H](C=O)NC(=O)[C@H](CC(C)C)NC(=O)[C@H](CC(C)C)NC(=O)OCc1ccccc1 [MG 132, reference compound] (Cbz-Leu-Leu-Leu-aldehyde) |  | reduction in HIF-1α protein levels associated with OS-9 co-expression (HIF-1α): blocked |
| SMDESGLPQLTSYDCEVNAPIQGSRNLLQGEELLRALDQVN (other, UniProt Q16665 786-826, looked up, Expressed in E. coli; not shown: glutathione-S-transferase (GST) from a pGEX expression vector) [GST-HIF-1α (786-826)] | no binding |  |
| GST-HIF-1α (429-608) (other, UniProt Q16665 429-608, looked up, Expressed in E. coli; not shown: glutathione-S-transferase (GST) from a pGEX expression vector) PLYNDVMLPSPNEKLQNINLAMSPLPTAETPKPLRSSADPALNQEVALKLEPNPESLELSFTMPQIQDQTPSPSDGSTRQSSPEPNSPSEYCFYVDSDMVNEFKLELVEKLFAEDTEAKNPFSTQDTDLDLEMLAPYIPMDDDFQLRSFDQLSPLESSSASPESASPQSTVTVFQQTQIQ | no binding |  |
| GST-HIF-1α (531-610) (other, UniProt Q16665 531-610, looked up, Expressed in E. coli; not shown: glutathione-S-transferase (GST) from a pGEX expression vector) FKLELVEKLFAEDTEAKNPFSTQDTDLDLEMLAPYIPMDDDFQLRSFDQLSPLESSSASPESASPQSTVTVFQQTQIQEP | no binding |  |
